# Source: patent publication US20100204157A1, “USE OF A PEPTIDE AS A THERAPEUTIC AGENT” (priority 2007, published 2010)
# Where no end group is shown, it is not given here.
# System: drug-resistant Mycobacterium tuberculosis
# Details: 5 micrograms per ml
substance,measurement,value
FFVAP [Phe-Phe-Val-Ala-Pro],% inhibition,0.0%
